In paper PMC7026418, “The kinase polypharmacology landscape of clinical PARP inhibitors” (Scientific Reports, 2020):
Like-named read-outs stand apart in the source and are kept apart here. Blank lines part the entries; values can stand above or below the compound they belong to.

What was measured:
Assay in all cases: biochemical
Set-up in all cases: DiscoveRx KINOMEscan active site-directed competition binding; percent of control kinase bound to immobilised ligand
PIK3CA(M1043I) = PIK3CA(M1043I) (Homo sapiens, UniProt P42336, M1043I)
LATS2 = target: T1, LATS2 (Homo sapiens, UniProt Q9NRM7)
T1 sequence (Q9NRM7 1-1088): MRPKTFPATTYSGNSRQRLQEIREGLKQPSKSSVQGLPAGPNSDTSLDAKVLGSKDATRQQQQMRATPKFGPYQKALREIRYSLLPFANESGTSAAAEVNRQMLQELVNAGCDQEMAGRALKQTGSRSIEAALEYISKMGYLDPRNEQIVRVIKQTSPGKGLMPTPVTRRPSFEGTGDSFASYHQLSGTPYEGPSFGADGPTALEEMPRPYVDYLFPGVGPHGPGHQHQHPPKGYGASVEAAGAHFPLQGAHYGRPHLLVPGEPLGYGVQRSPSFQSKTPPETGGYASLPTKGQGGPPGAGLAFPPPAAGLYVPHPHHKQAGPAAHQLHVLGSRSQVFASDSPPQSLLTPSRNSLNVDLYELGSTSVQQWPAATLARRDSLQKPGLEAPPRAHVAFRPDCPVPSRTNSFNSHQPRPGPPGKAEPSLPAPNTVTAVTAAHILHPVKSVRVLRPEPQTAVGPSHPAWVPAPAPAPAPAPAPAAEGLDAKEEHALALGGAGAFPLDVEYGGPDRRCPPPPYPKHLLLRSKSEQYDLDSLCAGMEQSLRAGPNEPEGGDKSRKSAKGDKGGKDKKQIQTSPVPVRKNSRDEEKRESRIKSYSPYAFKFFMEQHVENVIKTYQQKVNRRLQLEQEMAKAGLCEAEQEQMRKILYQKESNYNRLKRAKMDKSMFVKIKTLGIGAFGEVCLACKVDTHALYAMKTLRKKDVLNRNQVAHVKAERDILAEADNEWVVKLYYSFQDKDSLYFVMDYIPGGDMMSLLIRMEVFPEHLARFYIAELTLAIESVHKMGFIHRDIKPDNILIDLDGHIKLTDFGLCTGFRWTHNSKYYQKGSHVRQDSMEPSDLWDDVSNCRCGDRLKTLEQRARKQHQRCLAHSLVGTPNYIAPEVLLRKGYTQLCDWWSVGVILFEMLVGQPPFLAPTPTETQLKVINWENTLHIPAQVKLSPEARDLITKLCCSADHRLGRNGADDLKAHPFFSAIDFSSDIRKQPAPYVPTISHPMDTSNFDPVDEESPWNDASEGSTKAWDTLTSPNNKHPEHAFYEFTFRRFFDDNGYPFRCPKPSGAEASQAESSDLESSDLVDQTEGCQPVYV

PIP5K1A = PIP5K1A (Homo sapiens, UniProt Q99755)
PIP5K1A, sequence (Q99755 whole entry): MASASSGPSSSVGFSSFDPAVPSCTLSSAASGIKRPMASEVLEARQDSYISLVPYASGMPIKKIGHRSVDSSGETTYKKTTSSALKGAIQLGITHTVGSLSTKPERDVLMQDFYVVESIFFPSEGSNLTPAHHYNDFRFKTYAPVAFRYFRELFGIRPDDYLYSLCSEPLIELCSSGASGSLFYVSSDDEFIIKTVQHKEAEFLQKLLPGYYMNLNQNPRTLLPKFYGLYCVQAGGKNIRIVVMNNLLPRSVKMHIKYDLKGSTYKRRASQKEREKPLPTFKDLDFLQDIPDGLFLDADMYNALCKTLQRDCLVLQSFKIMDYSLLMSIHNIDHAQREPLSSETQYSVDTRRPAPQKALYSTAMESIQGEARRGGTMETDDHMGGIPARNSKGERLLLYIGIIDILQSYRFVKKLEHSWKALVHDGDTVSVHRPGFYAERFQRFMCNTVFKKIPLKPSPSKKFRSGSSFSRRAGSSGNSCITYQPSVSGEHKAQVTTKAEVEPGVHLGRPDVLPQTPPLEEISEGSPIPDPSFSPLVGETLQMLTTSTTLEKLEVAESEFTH

EGFR(T790M) = EGFR(T790M) (Homo sapiens, UniProt P00533, T790M)
SgK110 = target: T2, SgK110 (Homo sapiens, UniProt P0C264)
T2 construct: gene SBK3
T2 sequence (P0C264 1-359): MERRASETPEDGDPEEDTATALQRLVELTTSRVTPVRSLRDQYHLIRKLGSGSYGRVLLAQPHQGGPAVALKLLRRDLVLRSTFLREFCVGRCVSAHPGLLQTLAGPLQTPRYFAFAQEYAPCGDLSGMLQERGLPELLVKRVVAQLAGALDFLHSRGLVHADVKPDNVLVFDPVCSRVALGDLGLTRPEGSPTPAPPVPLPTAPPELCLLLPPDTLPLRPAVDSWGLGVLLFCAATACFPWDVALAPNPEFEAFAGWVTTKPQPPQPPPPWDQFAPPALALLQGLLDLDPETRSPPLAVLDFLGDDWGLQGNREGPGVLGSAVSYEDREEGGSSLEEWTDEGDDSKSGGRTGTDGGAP

p38-beta = target: T3, p38-beta (Homo sapiens, UniProt Q15759)
T3 construct: gene MAPK11
T3 sequence (Q15759 whole entry): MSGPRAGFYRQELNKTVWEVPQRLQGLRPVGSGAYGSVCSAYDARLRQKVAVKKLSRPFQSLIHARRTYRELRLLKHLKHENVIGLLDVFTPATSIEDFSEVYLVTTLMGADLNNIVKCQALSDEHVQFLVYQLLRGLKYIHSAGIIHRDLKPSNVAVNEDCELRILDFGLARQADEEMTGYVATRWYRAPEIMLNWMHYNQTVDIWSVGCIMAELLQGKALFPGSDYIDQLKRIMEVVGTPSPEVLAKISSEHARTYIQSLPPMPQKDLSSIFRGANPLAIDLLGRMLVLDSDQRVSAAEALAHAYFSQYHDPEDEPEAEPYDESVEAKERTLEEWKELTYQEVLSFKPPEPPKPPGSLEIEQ

MARK3 = MARK3 (Homo sapiens, UniProt P27448)
MARK3, sequence (P27448 whole entry): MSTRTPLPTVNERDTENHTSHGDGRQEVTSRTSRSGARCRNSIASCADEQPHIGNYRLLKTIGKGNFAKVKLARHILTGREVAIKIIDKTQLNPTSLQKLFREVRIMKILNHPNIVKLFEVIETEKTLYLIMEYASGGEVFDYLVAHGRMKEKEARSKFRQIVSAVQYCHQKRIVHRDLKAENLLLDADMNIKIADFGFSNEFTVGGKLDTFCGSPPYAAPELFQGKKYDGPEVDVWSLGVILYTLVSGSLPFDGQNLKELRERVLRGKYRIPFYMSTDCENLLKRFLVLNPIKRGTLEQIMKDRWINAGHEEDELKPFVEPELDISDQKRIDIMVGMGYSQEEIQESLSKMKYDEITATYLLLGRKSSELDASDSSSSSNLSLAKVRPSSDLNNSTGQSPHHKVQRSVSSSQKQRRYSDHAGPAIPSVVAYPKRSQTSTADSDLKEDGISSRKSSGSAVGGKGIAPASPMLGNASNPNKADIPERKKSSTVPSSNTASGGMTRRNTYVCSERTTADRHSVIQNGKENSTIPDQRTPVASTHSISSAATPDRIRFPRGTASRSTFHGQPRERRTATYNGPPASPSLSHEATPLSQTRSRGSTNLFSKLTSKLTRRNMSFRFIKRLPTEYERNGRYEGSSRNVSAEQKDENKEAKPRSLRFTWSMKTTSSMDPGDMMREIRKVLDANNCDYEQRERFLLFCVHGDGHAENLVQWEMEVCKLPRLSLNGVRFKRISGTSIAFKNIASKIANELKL

WNK2 = WNK2 (Homo sapiens, UniProt Q9Y3S1)
WNK2, sequence (Q9Y3S1 whole entry): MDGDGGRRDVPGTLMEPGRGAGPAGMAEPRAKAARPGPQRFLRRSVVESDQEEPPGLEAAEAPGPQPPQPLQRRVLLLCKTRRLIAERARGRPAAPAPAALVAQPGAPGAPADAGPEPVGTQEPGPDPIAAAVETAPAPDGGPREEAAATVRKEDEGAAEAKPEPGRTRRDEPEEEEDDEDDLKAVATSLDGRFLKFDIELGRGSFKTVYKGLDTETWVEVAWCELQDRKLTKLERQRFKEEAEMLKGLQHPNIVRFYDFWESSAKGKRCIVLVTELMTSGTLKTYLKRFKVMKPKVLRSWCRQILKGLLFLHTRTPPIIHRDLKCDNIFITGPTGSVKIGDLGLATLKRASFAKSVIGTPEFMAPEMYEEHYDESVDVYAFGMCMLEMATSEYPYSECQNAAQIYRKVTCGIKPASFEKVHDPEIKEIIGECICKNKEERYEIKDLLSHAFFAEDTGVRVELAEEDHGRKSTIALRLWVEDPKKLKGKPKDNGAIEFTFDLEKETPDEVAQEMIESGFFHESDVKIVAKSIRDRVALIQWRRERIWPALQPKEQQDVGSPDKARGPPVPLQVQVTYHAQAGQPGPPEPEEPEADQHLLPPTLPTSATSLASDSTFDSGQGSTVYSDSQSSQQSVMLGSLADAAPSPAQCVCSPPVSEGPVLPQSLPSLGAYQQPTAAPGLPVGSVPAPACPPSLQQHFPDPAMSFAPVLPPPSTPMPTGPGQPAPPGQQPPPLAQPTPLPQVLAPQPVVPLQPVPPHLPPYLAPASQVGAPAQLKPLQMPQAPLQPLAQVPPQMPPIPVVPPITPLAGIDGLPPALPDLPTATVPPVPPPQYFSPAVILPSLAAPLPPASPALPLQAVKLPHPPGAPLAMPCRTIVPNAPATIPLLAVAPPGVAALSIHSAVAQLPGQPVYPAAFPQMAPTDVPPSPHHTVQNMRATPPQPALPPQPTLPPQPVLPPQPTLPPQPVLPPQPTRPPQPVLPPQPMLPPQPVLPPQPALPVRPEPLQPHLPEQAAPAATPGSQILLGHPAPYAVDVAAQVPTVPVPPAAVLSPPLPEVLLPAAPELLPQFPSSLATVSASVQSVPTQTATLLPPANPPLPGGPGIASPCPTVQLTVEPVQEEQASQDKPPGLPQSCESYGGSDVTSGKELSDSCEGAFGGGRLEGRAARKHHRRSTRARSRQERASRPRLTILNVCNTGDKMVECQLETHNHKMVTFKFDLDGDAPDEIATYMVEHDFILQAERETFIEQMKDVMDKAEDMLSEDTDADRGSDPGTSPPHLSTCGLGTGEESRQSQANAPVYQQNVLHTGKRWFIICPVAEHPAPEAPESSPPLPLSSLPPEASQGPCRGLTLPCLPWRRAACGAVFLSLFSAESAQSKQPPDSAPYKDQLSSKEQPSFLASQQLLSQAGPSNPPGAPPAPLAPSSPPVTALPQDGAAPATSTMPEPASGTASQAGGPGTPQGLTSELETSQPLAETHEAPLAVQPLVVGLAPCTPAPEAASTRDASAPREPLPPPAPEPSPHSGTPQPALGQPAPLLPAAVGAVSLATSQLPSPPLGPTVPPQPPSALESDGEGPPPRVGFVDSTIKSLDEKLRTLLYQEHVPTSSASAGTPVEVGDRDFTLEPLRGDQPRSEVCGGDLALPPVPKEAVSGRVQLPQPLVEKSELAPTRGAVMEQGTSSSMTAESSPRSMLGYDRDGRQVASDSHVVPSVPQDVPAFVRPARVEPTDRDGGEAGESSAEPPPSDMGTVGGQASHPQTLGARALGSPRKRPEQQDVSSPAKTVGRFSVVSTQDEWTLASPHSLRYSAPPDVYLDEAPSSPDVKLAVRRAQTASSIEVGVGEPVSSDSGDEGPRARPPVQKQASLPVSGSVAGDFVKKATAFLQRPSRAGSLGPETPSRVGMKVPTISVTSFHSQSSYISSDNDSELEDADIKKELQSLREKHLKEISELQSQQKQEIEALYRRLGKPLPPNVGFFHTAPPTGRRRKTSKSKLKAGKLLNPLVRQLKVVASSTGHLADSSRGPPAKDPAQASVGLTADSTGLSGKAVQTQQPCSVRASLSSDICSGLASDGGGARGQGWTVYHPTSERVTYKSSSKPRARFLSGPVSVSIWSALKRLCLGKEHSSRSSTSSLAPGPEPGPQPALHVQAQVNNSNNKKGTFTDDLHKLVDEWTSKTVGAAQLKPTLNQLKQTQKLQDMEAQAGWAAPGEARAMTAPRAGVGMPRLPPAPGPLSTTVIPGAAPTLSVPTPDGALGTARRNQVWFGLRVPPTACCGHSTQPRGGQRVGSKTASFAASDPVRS

PIKFYVE = PIKFYVE (Homo sapiens, UniProt Q9Y2I7)
MINK = target: T4, MINK (Homo sapiens, UniProt Q8N4C8)
T4 construct: gene MINK1

CAMK1D = CAMK1D (Homo sapiens, UniProt Q8IU85)
CAMK1D, sequence (Q8IU85 whole entry): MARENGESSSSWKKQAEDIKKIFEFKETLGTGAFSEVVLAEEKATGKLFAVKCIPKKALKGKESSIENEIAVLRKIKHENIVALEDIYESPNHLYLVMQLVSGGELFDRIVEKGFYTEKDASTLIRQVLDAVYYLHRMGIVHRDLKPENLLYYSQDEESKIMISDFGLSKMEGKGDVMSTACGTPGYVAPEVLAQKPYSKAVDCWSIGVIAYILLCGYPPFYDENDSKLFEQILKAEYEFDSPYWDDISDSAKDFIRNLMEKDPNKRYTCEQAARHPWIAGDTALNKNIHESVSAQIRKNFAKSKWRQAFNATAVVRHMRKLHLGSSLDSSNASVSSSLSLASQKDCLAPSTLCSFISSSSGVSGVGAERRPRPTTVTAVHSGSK

[1] = read-out: Niraparib (MK-4827) / %Ctrl @ 10000nM
[2] = read-out: Rucaparib / %Ctrl @ 10000nM, binding competition, % of control
[3] = read-out: Olaparib / %Ctrl @ 10000nM
[4] = read-out: Talazoparib (BMN 673) / %Ctrl @ 10000nM

SMILES: NC(=O)c1cccc2cn(-c3ccc([C@@H]4CCCNC4)cc3)nc12 [Niraparib]
percent of control binding at 10 µM (PIK3CA(M1043I); [1]): 90%
percent of control binding at 10 µM (LATS2; [1]): 4.2%
percent of control binding at 10 µM (PIP5K1A; [1]): 100%
percent of control binding at 10 µM (EGFR(T790M); [1]): 93%
percent of control binding at 10 µM (SgK110; [1]): 84%
percent of control binding at 10 µM (p38-beta; [1]): 99%
percent of control binding at 10 µM (MARK3; [1]): 91%
percent of control binding at 10 µM (WNK2; [1]): 100%
percent of control binding at 10 µM (PIKFYVE; [1]): 75%
percent of control binding at 10 µM (MINK; [1]): 67%
percent of control binding at 10 µM (CAMK1D; [1]): 84%

percent of control binding at 10 µM (PIK3CA(M1043I); [2]): 77%
percent of control binding at 10 µM (LATS2; [2]): 48%
percent of control binding at 10 µM (PIP5K1A; [2]): 100%
percent of control binding at 10 µM (EGFR(T790M); [2]): 75%
percent of control binding at 10 µM (SgK110; [2]): 63%
percent of control binding at 10 µM (p38-beta; [2]): 93%
percent of control binding at 10 µM (MARK3; [2]): 100%
percent of control binding at 10 µM (WNK2; [2]): 66%
percent of control binding at 10 µM (PIKFYVE; [2]): 92%
percent of control binding at 10 µM (MINK; [2]): 29%
percent of control binding at 10 µM (CAMK1D; [2]): 86%
SMILES: CNCc1ccc(-c2[nH]c3cc(F)cc4c3c2CCNC4=O)cc1 [Rucaparib]

percent of control binding at 10 µM (PIK3CA(M1043I); [3]): 91%
percent of control binding at 10 µM (LATS2; [3]): 77%
percent of control binding at 10 µM (PIP5K1A; [3]): 100%
percent of control binding at 10 µM (EGFR(T790M); [3]): 84%
percent of control binding at 10 µM (SgK110; [3]): 63%
percent of control binding at 10 µM (p38-beta; [3]): 90%
percent of control binding at 10 µM (MARK3; [3]): 96%
percent of control binding at 10 µM (WNK2; [3]): 76%
percent of control binding at 10 µM (PIKFYVE; [3]): 100%
percent of control binding at 10 µM (MINK; [3]): 100%
percent of control binding at 10 µM (CAMK1D; [3]): 94%
SMILES: O=C(c1cc(Cc2n[nH]c(=O)c3ccccc23)ccc1F)N1CCN(C(=O)C2CC2)CC1 [Olaparib]

percent of control binding at 10 µM (PIK3CA(M1043I); [4]): 94%
percent of control binding at 10 µM (LATS2; [4]): 82%
percent of control binding at 10 µM (PIP5K1A; [4]): 88%
percent of control binding at 10 µM (EGFR(T790M); [4]): 65%
percent of control binding at 10 µM (SgK110; [4]): 100%
percent of control binding at 10 µM (p38-beta; [4]): 86%
percent of control binding at 10 µM (MARK3; [4]): 98%
percent of control binding at 10 µM (WNK2; [4]): 100%
percent of control binding at 10 µM (PIKFYVE; [4]): 80%
percent of control binding at 10 µM (MINK; [4]): 100%
percent of control binding at 10 µM (CAMK1D; [4]): 91%
SMILES: Cn1ncnc1[C@H]1c2n[nH]c(=O)c3cc(F)cc(c23)N[C@@H]1c1ccc(F)cc1 [Talazoparib]
